Measured values reported in PubChem BioAssay (NCI).
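96-well plates; 48 h exposure; 5 concentrations. Endpoints by linear interpolation between flanking doses. Not reached: highest tested concentration assigned. TGI: concentration producing complete growth inhibition.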

Assays:
Experiment in all cases: NCI tumour cell line growth inhibition, 48 h
LOX IMVI melanoma = system: LOX IMVI melanoma
SNB-75 CNS = system: SNB-75 CNS
OVCAR-4 ovarian = system: OVCAR-4 ovarian
UACC-257 melanoma = system: UACC-257 melanoma
CCRF-CEM leukemia = system: CCRF-CEM leukemia
DU-145 prostate = system: DU-145 prostate
PC-3 prostate = system: PC-3 prostate
HS 578T breast = system: HS 578T breast
UO-31 renal = system: UO-31 renal
SN12C renal = system: SN12C renal
T-47D breast = system: T-47D breast
U251 CNS = system: U251 CNS
COLO 205 colon = system: COLO 205 colon
M14 melanoma = system: M14 melanoma
NCI-H226 lung = system: NCI-H226 lung
OVCAR-3 ovarian = system: OVCAR-3 ovarian
MALME-3M melanoma = system: MALME-3M melanoma
ACHN renal = system: ACHN renal
MOLT-4 leukemia = system: MOLT-4 leukemia

SMILES | TGI (LOX IMVI melanoma) [µM] | TGI (SNB-75 CNS) [µM] | TGI (OVCAR-4 ovarian) [µM] | TGI (UACC-257 melanoma) [µM] | TGI (CCRF-CEM leukemia) [µM] | TGI (DU-145 prostate) [µM] | TGI (PC-3 prostate) [µM] | TGI (HS 578T breast) [µM] | TGI (UO-31 renal) [µM] | TGI (SN12C renal) [µM] | TGI (T-47D breast) [µM] | TGI (U251 CNS) [µM] | TGI (COLO 205 colon) [µM] | TGI (M14 melanoma) [µM] | TGI (NCI-H226 lung) [µM] | TGI (OVCAR-3 ovarian) [µM] | TGI (MALME-3M melanoma) [µM] | TGI (ACHN renal) [µM] | TGI (MOLT-4 leukemia) [µM]
COC(=O)c1c(O)ccc2c1c1c(n2Cc2ccccc2)C(=O)c2ccccc2C1=O | 41.6 | 29.1 | 24.3 | 32.8 | 46.8 | 49.9 | 29.4 | 43.3 | 22.1 | 28.1 | 42.1 | 29.2 | 3.32 | 37.4 | 39.6 | 47.5 | 54.7 | 25.3 | 25.3
CC(=O)C(=[N+]=[N-])C(=O)NCC#N | > 10 | > 10 | > 10 | > 10 | > 10 | > 10 | > 10 | > 10 | > 10 | > 10 | > 10 | > 10 | > 10 | > 10 | > 10 | > 10 | > 10 | > 10 | > 10
CC[C@](O)(CC(=O)O[C@H]1C(=O)O[C@@H]2C[C@H]3C(C)=CC(=O)[C@@H](O)[C@]3(C)[C@H]3[C@@]4(O)OC[C@]32[C@@H]1[C@@H](C)[C@H]4O)C(C)C | < 0.01 | < 0.01 | < 0.0144 | < 0.01 | < 0.01 | < 0.01 | < 0.01 | < 0.01 | 0.0447 | < 0.01 | < 0.01 | < 0.01 | < 0.01 | < 0.01 | < 0.01 | < 0.01 | < 0.01 | < 0.01 | < 0.01
CN1CCC2(CC1)SC[C@H]1C(=O)N(c3ccc(Cl)cc3)C(=O)N12 | > 100 | > 100 | > 100 | > 100 | > 100 | > 100 | > 100 | > 100 | > 100 | > 100 | > 100 | > 100 | > 100 | > 100 | > 100 | > 100 | > 100 | > 100 | > 100
CCOC(=O)C(C(=O)OCC)=C1NC2(c3ccccc3Nc3ccc(C)cc32)C(C#N)S1 (stereo unspecified) | 24.4 | 64.3 | 40.7 | 45.6 | > 100 | 43.8 | 13.7 | 46.5 | 17.8 | 8.68 | 34.6 | 17.9 | 14.6 | 17.6 | 25.3 | 8.44 | 30.7 | 16.3 | 5.76
COc1cc(S(=O)(=O)Nc2nc(-c3ccc(N4C(=O)CSC4c4cccs4)cc3)cs2)ccc1Cl (stereo unspecified) | 48.2 | > 100 | 97.7 | > 100 | > 100 | > 100 | > 100 | > 100 | 73.4 | 77.8 | > 100 | > 100 | > 100 | > 100 | > 100 | > 100 | > 100 | > 100 | > 100
Cc1cc(C)nc(NS(=O)(=O)c2ccc(NNc3c4ccccc4nc4c(C(=O)Nc5ccc(S(=O)(=O)Nc6ncccn6)cc5)cccc34)cc2)n1 | 45.1 | 73.9 | 89.7 | 94.3 | 59.9 | > 100 | 71.3 | > 100 | > 100 | 75.1 | 74.3 | 56 | 54.3 | > 100 | 53.2 | 42.2 | 60.3 | 54.3 | 92.9
Cc1oc2c(c1C)S(=O)(=O)C(C#N)C(c1ccccc1)N2 (stereo unspecified) | > 100 | > 100 | > 100 | > 100 | 48.2 | > 100 | > 100 | > 100 | > 100 | > 100 | > 100 | > 100 | > 100 | > 100 | > 100 | > 100 | > 100 | > 100 | 65.5
CCOC(=O)C(SCCO)C(C(=O)OCC)n1cnc2c(N)ncnc21 (stereo unspecified) | 15.1 | 24.7 | > 48.3 | > 80.2 | 6.39 | > 100 | 14.7 | 59.2 | 55.1 | 25.6 | 30.8 | 20.4 | 20 | 9.83 | 38 | 25.4 | 23.8 | 22.4 | 20
CCC(Sc1cc(Cl)c(C)cc1S(=O)(=O)Nc1nc(N)nc(N(C)C)n1)C(=O)O (stereo unspecified) | > 10 | > 10 | > 10 | > 10 | > 10 | > 10 | > 10 | > 10 | > 10 | > 10 | > 10 | > 10 | > 10 | > 10 | > 10 | > 10 | > 10 | > 10 | > 10
Nc1nc(Cl)c(N)c(NCC2(CO)CCC2)n1 | > 100 | > 100 | > 100 | > 100 | > 100 | > 100 | > 100 | > 100 | > 100 | > 100 | > 100 | > 100 | > 100 | > 100 | > 100 | > 100 | > 100 | > 100 | > 100
CN(C)c1ccc(/C=N\NC(=O)c2ccccc2Nc2ccccc2C(=O)N/N=C/c2ccc(N(C)C)cc2)cc1 | > 100 | > 100 | > 100 | > 100 | > 100 | > 100 | > 100 | > 100 | > 100 | > 100 | > 100 | > 100 | > 100 | 95.9 | > 100 | > 100 | 98 | > 100 | > 100
CN1C2CCC1CC(CCOC(c1ccc(F)cc1)c1ccc(F)cc1)C2 (stereo unspecified) | 30.3 | 30.4 | 38.8 | 34.1 | 46.1 | 33.5 | 29.6 | 44.5 | 27.9 | 38.2 | 39.2 | 28.1 | 24.1 | 32.5 | 29.1 | 32.4 | 29.3 | 30.8 | 44
COC(=O)C(Cc1c[nH]c2ccccc12)N=C1Nc2ccncc2S(=O)(=O)N1c1ccccc1 (stereo unspecified) | 69.3 | 75 | 75.7 | > 100 | 32.2 | > 100 | 54 | > 100 | > 100 | > 100 | 51 | > 100 | 33.9 | > 100 | 61.4 | 99.5 | 40.5 | > 100 | 35.1
